Entries after “also recorded” stand apart in the source; their conditions may differ. Read-outs that look alike come from different tables or passages of the source.
What was measured:
TEAD [1] = conditions: cited from earlier work
H226 cancer cell = assay: Cell viability assay (CellTiter-Glo 2.0), H226; format: cell-based; conditions: Homo sapiens, NCI-H226, 144 h, H226 cells, n = 3
Protocol: (§1) Stable cell lines, namely MCF7 cell TEAD luciferase cells, were maintained in Dulbecco’s modified Eagle medium (DMEM) containing 10% fetal bovine serum, penicillin, and streptomycin, at 37 °C, in a humidified incubator containing 5% CO2. To construct an MCF7-TEAD luciferase stable cell line, MCF7 cells were infected with a TEAD luciferase reporter lentivirus using polybrene (Millipore, Burlington, MA, USA) and then selected with puromycin. The stable cell lines NCI-[…] and NCI-H28 were maintained in Roswell Park Memorial Institute (RPMI) medium.
(§2) Cells were seeded into 96-well plates (1 × 10^3 cells per well) and changed to RPMI with 1% FBS, and then treated with various concentrations (0.0001–10 μmol/L) of compounds (MGH-CP1, BC-010, BC-011, and BC-013) for 144 h. The medium was replaced with 1% FBS + RPMI containing compounds every 3 d. Cell viability was measured using the CellTiter-Glo® 2.0 Cell Viability Assay Kit from Promega. Before the viability was measured, the drug treatment medium was removed and replaced with 50 μL of FBS-free RPMI and 50 μL of CellTiter-Glo® 2.0 reagent. The cells with medium replacement were incubated for 1 h at room temperature, to prevent exposure to light. Luminescence was measured using a VICTOR® Nivo™ multimode microplate reader (PerkinElmer) and normalized to the results of the vehicle.

TEAD [2] = assay: TEAD luciferase reporter assay in MCF7 cells; format: cell-based; conditions: for IC50: Homo sapiens
Protocol: as §1
TEAD luciferase reporter MCF7 cells were seeded into 96-well white plates (3 × 10^4 cells per well). The medium was replaced with DMEM without fetal bovine serum (FBS; 100 μL per well), and the cells were treated with various concentrations of compounds (0.001–10 μmol/L) for 24 h. Fifty microliters of the medium containing compounds was removed from each well, following which 50 μL of FBS in 10% DMEM was added to the cells and incubated for 6 h. Luciferase activity was measured using the One-Glo® Luciferase Assay Kit from Promega (Madison, WI, USA). A small portion of the medium was removed (60 μL) from each well, and 40 μL of One-Glo® Luciferase assay buffer containing reagent was added in its place. Luminescence was measured using a VICTOR® Nivo™ multimode microplate reader (PerkinElmer, Waltham, MA, USA) and normalized to the results of the vehicle.

H28 cancer cell line = assay: Cell viability assay (CellTiter-Glo 2.0), H28; format: cell-based; conditions: for IC50: Homo sapiens, NCI-H28, H28 cells, 144 h, n = 3
Protocol: as §1, §2

[3] = system: TEAD target genes Ctgf and Cyr61; assay: mRNA expression of TEAD target genes by qRT-PCR in H226 cells; format: cell-based; conditions: 24 h, 1, 5 and 10 μM, n = 3
Protocol: H226 cells were seeded at a density of 1 × 10^5 cells/well into a 12-well plate. After treatment with various concentrations (1, 5, and 10 μM) of the compounds, the cells were incubated at 37 °C for 24 h. RNA extraction was performed using the RNeasy Plus Mini Kit (QIAGEN, Hilden, Germany), as per the manufacturer’s protocol. Extracted RNA was quantified using a NanoDrop™ One Microvolume UV–Vis Spectrophotometer (Thermo Fisher, Waltham, MA, USA). cDNA was synthesized using 1000 ng of quantified RNA and an iScript™ cDNA Synthesis Kit (Bio-Rad, Hercules, CA, USA). qRT-PCR was carried out using PowerUp™ SYBR™ Green Master Mix (Thermo Fisher) and primers (hCTGF-F: CCAATGACAACGCCTCCTG, hCTGF-R: TGGTGCAGCCAGAAAGCTC, hCYR61-F: […], hCYR61-R: […], hβ-actin-F: […], hβ-actin-R: […]), with the results normalized to those of the vehicle.

TEAD [4] = conditions: cited from earlier work; remark: listed apart in the source
TEAD2 = biological target: TEAD2; parameters: method as in PMID 26592798; conditions: reference compounds of Figure 1; cited from earlier work
[5] = 1 nM to 10 μM, n = 2, read-out: IC50, TEAD reporter luciferase assay
[6] = Vivace compounds, ref 45 (WO202097389A1)
[7] = reference compounds of Figure 1 and FMO section
[8] = reference compounds of Figure 1

Question: Which IC50 (TEAD [1]; Merck compounds, ref 40 (WO2021224291A1)) does the source give for Cn1cc2c3cc(C(=O)O)ccc3n(-c3ccc(F)cc3)c2n1 [Merck_20] here?
Answer: 1.9 µM

Question: What does the source list for COC(=O)c1ccc(OC)c(COc2ccc(C(F)(F)F)cc2)c1 [BC-013]?
Answer: IC50 (H226 cancer cell): 2.25 µM; IC50 (TEAD [2]; [5]): 0.417 µM; IC50 (H28 cancer cell line): 9.32 µM

Question: With COC(=O)c1ccc(OC)c(COc2ccccc2)c1 [BC-009] as the compound, how does the IC50 (TEAD [2]; [5]) read?
Answer: 2.61 µM

Question: For C[C@H](NC(=O)c1ccc2c(-c3ccc(C(F)(F)F)cc3)cccc2c1)c1ccccn1 [VT-104], which IC50 (TEAD [1]; [6]) is on record?
Answer: 0.01 µM

Question: Which results are given for COc1ccc(C(N)=O)cc1COc1ccc(C(F)(F)F)cc1 [BC-011]?
Answer: IC50 (H226 cancer cell): 0.488 µM; Ctgf mRNA expression [3]: significantly downregulated; also recorded: decreased; Cyr61 mRNA expression [3]: significantly downregulated; also recorded: decreased; IC50 (TEAD [2]; [5]): 0.0724 µM; Effect on viability (in words) (H28 cancer cell line; H28 cancer cell line): did not show any inhibitory effects; IC50 (H28 cancer cell line): > 10 µM

Question: For O=C(CCl)c1ccccc1Nc1cccc(C(F)(F)F)c1 [TED–347], which EC50 (TEAD [4]; reference compound of Figure 1) is on record?
Answer: 5.9 ± 0.4 µM

Question: Which IC50 (TEAD [4]; [7]) does the source give for COc1ncc(NS(C)(=O)=O)cc1/C=C/C1CCC(F)(F)CC1 [Compound 2] here?
Answer: 0.263 µM

Question: With COc1ccc(C(=O)O)cc1COc1ccc(C(F)(F)F)cc1 [BC-012] as the compound, how does the IC50 (TEAD [2]; [5]) read?
Answer: 8.9 µM

Question: Which IC50 (TEAD [2]; [5]) does the source give for COc1ccc(C(=O)O)cc1COc1ccccc1 [BC-008] here?
Answer: > 10 µM

Question: For COc1ccc(C(N)=O)cc1COc1ccccc1 [BC-007], which IC50 (TEAD [2]; [5]) is on record?
Answer: 5.61 µM

Question: With C=CC(=O)Nc1ccc(C)c(Oc2ccc(Cl)cc2)c1 [K–975] as the compound, how does the IC50 (TEAD [4]; [7]) read?
Answer: < 0.1 µM

Question: With O=C(Nc1ccccc1)N1CCN(C(=O)c2cccc(OCCC3CCCCC3)c2)CC1 [TM2] as the compound, how does the IC50 (TEAD [4]; [8]) read?
Answer: 0.152 µM

Question: Which IC50 (TEAD [4]; [8]) does the source give for COc1c(C)cc(N2C[C@@H](O)[C@@H](O)C2=O)cc1/C=C/c1ccc(Cl)cc1 [Compound 1 (Genentech)] here?
Answer: 2.8 µM

Question: What does the source list for COc1ccc(C(=O)NN)cc1COc1ccc(Cl)c(C)c1 [BC-001]?
Answer: IC50 (TEAD [2]; [5]): 3.68 µM; IC50 (TEAD [2]; read-out: IC50, reporter assay): 3.7 µM

Question: For NNC(=O)c1cccc(COc2ccc(Cl)cc2)c1 [BC-005], which “TEAD reporter luciferase activity (in words)” value (TEAD [2]) is on record?
Answer: increased

Question: Which IC50 (TEAD [4]; [7]) does the source give for Cn1cc2c3cc(C(=O)O)ccc3n(-c3ccc(C(F)(F)F)cc3)c2n1 [MSC-4106] here?
Answer: 0.004 µM

Question: Which IC50 (H226 cancer cell) does the source give for O=C(CSc1nnc[nH]1)Nc1ccc(C23CC4CC(CC(C4)C2)C3)cc1 [MGH-CP1, reference compound] here?
Answer: 1.19 µM

Question: And the IC50 (TEAD [4]; [7])?
Answer: 1.92 µM

Question: What about the IC50 (TEAD [2]; [5]) of the same compound?
Answer: 0.219 µM

Question: What about the IC50 (H28 cancer cell line) of the same compound?
Answer: 1.72 µM

Question: For O=C(O)c1cnc2c(cnn2C2CCCC2)c1 [Fragment 1(Merck)], which IC50 (TEAD [4]; [8]) is on record?
Answer: 16 µM

Question: With O=C(O)c1ccccc1Nc1cccc(C(F)(F)F)c1 [Flufenamic acid, flufenamic acid] as the compound, how does the Kd (TEAD2) read?
Answer: 73 µM

Question: For C[C@@H](CN(C)C)NC(=O)c1ccc2c(-c3ccc(C(F)(F)F)cc3)cccc2c1 [EX64], which IC50 (TEAD [1]; [6]) is on record?
Answer: 1 to 3 µM

Question: For COc1ccc(C(=O)NN)cc1COc1ccc(Br)cc1 [BC-002], which “TEAD reporter luciferase activity (in words)” value (TEAD [2]) is on record?
Answer: retained the same activity as BC-001

Question: What about the IC50 (TEAD [2]; [5]) of the same compound?
Answer: 2.89 µM

Question: With COc1ccc(C(=O)NN)cc1COc1ccccc1 [BC-006] as the compound, how does the IC50 (TEAD [2]; [5]) read?
Answer: 1.52 µM

Question: With C=CC(=O)N1C[C@@H](n2cc(-c3cccnc3)nn2)[C@H](OCc2ccc(C(F)(F)F)cc2)C1 [MYF–03–69] as the compound, how does the IC50 (TEAD [4]; [7]) read?
Answer: 0.385 µM

Question: For CC(NC(=O)c1cnc2c(-c3ccc(C(F)(F)F)cc3)cccc2c1)c1ccccn1 (centres unmarked) [VT-105], which IC50 (TEAD [4]; [7]) is on record?
Answer: 0.0104 µM

Question: For COc1ccc(C(=O)NN)cc1COc1ccc(Cl)cc1 [BC-003], which “TEAD reporter luciferase activity (in words)” value (TEAD [2]) is on record?
Answer: retained the same activity as BC-001

Question: And the IC50 (TEAD [2]; [5])?
Answer: 3.99 µM

Question: With COc1ccc(C=C(C#N)C#N)cc1COc1cc(C)c(Cl)c(C)c1 [BC-004] as the compound, how does the “TEAD reporter luciferase activity (in words)” value (TEAD [2]) read?
Answer: did not exhibit any activity

Question: And the IC50 (TEAD [2]; 1 nM to 10 μM, n = 2, printed in figure as 10uM<, read-out: IC50, TEAD reporter luciferase assay)?
Answer: > 10 µM

Question: With O=C(O)c1ccccc1Nc1cccc(Br)c1 [Bromofenamic acid, bromofenamic acid] as the compound, how does the Kd (TEAD2) read?
Answer: 234 µM

Question: What does the source list for COc1ccc(C(=O)NN)cc1COc1ccc(C(F)(F)F)cc1 [BC-010]?
Answer: IC50 (H226 cancer cell): 0.93 µM; IC50 (TEAD [2]; [5]): 0.768 µM; IC50 (H28 cancer cell line): 9.1 µM
